In data set [1] the test system is Caco-2 monolayers. It counts as in vitro ADME, human. On the procedure:
Caco-2 cells were seeded on 24-well Millicell insert filters with a density of about 1×10^5 cells/well. These cells were cultured for 21 days to reach confluence and differentiation. The integrity of Caco-2 cell monolayers was evaluated by monitoring trans-epithelial electrical resistance (TEER) on an epithelial volt ohmmeter (World Precision Instruments, Sarasota, Fla., USA). The impermeability (gate functions) of epithelial cell monolayers was measured by the fluorescein leakage test (FLT) that provided information on the effects of xenobiotics on the impermeability of epithelial cell monolayers. The differentiation was assessed using the alkaline phosphatase (ALP) assay at 562 nm
After the above measured parameters of the Caco-2 model became stable, transport study was performed from the apical (AP) to the basolateral (BL) side and from BL to AP at 37° C. Following 30 min of equilibration after the addition of 400 μl HBSS (pH 7.4) in AP side and 600 μl in BL side in an atmosphere of 5% CO2, the test solutions containing 100 μM scutellarin or each of 100 μg/ml of five surfactants Cremophor® EL, Cremophor® RH, Labrasol®, Pluronic® F68, and Pluronic® F127; each of 100 μg/ml of three oils Labrafac Lipophile® WL1349, Maisine® 35-1, and Capmul® MCM; each of 100 μg/ml of three co-surfactants Transcutol®, PEG 400, and PEG 2000; and each of 100 μg/ml of four solid carriers β-cyclodextrin, lactose, HPMC K4M®, HPMC K100®. The solutions were all dissolved in DMSO and HBSS and then added to the donor side. The sample of 100 μM scutellarin was used as the scutellarin standard group in comparing the excipients efflux effect. Permeability of scutellarin was measured at 37° C. from the AP to BL direction and BL to AP direction after incubating in 5% CO2 for respectively 30 min, 60 min, and 90 min. […] After 90 min of incubation, solutions from both AP and BL sides were collected. Then the separately collected samples from each well of AP and BL sides were diluted with equal amounts of methanol before they were injected into the LC-MS for quantification of scutellarin. At 30, 60, 90 min of incubation, TEER values were respectively detected before the samples were drawn from the tested wells.
In the Caco-2 permeation analysis, if the calculated efflux ratio of one excipient group was lower than scutellarin standard group, this excipient might possibly be indicated to have the inhibition effect on MRP2.

The next data set has as its target T1, human MRP2 (Homo sapiens, UniProt Q92887).
T1 construct: purchased BD Biosciences; host or cells: insect Sf9 cells
Briefly: MRP2 membrane vesicles transport assay with scutellarin as probe (Example 13). It counts as biochemical. On the procedure: With some changes in BD protocol of MRP2 vesicles assay, a rapid filtration technique of multiscreen HTS vacuum manifold (Millipore) was used in the analysis. […] The mixture was incubated in the buffer (250 mM sucrose, 10 mM MgCl2, 10 mM Tris/HCl, pH 7.4) at 37° C. for […], followed by addition of 15 μl of 25 mM MgATP or blank buffer to each well started the test. The mixture was incubated for 4 min and stopped by transferring the membrane vesicles to a filter plate.

Data set [2] relates to Caco-2 monolayers. It counts as in vitro ADME. Conditions: human.
The mark [3] stands for this setting: human, Caco-2, 90 min, 100 μg/ml, pH 7.4.

Like-named read-outs stand apart in the source and are kept apart here.

T1 sequence (Q92887 whole entry): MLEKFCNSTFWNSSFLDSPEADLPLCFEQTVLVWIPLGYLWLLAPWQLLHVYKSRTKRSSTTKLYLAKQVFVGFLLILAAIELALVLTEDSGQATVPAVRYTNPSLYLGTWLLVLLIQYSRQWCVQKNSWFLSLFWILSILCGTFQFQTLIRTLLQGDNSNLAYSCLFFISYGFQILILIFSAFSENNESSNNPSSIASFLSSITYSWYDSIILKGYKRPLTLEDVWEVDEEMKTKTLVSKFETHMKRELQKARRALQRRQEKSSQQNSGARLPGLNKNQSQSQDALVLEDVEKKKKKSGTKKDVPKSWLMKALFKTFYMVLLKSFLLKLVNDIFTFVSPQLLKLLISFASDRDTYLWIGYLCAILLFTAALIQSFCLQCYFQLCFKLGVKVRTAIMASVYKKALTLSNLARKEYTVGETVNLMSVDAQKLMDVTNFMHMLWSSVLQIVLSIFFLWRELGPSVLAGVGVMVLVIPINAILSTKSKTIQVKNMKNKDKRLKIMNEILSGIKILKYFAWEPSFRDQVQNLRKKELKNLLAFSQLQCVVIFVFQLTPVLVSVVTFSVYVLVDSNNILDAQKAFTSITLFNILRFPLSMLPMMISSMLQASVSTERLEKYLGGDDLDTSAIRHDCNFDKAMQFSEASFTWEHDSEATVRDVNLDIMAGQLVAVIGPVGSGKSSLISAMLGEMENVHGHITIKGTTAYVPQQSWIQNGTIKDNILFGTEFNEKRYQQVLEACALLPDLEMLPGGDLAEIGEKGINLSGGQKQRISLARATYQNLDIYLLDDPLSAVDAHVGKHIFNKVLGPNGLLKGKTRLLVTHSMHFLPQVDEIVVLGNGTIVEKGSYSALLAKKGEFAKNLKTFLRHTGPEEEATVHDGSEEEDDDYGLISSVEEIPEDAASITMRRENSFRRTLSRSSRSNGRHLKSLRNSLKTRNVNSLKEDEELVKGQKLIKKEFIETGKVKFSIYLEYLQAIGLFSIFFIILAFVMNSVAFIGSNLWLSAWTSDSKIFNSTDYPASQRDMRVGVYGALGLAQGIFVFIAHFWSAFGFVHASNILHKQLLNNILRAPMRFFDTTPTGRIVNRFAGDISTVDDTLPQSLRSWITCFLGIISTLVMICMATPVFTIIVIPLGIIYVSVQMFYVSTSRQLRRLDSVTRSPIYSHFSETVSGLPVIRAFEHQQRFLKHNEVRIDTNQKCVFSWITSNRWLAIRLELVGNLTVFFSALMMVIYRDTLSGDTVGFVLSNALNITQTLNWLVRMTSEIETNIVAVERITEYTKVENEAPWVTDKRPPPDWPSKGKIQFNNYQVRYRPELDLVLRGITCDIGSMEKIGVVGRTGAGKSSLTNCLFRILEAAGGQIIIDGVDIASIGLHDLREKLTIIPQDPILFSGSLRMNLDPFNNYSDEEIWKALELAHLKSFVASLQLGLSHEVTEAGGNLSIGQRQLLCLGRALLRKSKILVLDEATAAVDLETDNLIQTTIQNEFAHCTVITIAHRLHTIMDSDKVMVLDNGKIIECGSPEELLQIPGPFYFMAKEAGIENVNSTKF

For the compound polyethylene glycol [PEG 2000], in the data set on Caco-2 monolayers [1] (Caco-2), the PappAB is recorded as 9.91 ± 0.35 10^−6 cm · s^−1 and the PappBA is listed as 12.91 ± 1.60 10^−6 cm · s^−1.

On to `OC[C@H]1O[C@@H](O[C@H]2[C@H](O)[C@@H](O)C(O)O[C@@H]2CO)[C@H](O)[C@@H](O)[C@H]1O` (stereo partly shown) [lactose], for which, in the data set on Caco-2 monolayers [1] (setting [3]), the PappAB is given as 1.44 ± 0.24 10^−6 cm · s^−1 and the PappBA is reported as 7.90 ± 0.43 10^−6 cm · s^−1.

In the case of Pluronic ® F68, in the data set on Caco-2 monolayers [1] (Caco-2), the Efflux reduction sequence result is “Cremophor® RH>Pluronic® F68>Labrasol®>Pluronic® F127”, the PappAB is 2.03 ± 0.35 10^−6 cm · s^−1 and the PappBA is reported as 4.38 ± 0.13 10^−6 cm · s^−1.

In the case of polyethylene glycol [PEG 400], in the data set with Caco-2 monolayers [1] (Caco-2), the PappAB is 1.46 ± 0.08 10^−6 cm · s^−1 and the PappBA was 1.96 ± 0.05 10^−6 cm · s^−1.

Regarding `CCOCCOCCO` [Transcutol ®, diethylene glycol monoethylether], the “sequence of inhibition effects on MRP2” value on human MRP2 (within excipient group, p<0.05) is “PEG 2000>PEG 400>Transcutol®”. For the same compound, in the data set on Caco-2 monolayers [1] (setting [3]), the PappAB was 2.69 ± 0.35 10^−6 cm · s^−1 and the PappBA is recorded as 5.99 ± 0.52 10^−6 cm · s^−1.

In the case of `OC[C@H]1O[C@@H]2O[C@H]3[C@H](O)[C@@H](O)[C@@H](O[C@H]4[C@H](O)[C@@H](O)[C@@H](O[C@H]5[C@H](O)[C@@H](O)[C@@H](O[C@H]6[C@H](O)[C@@H](O)[C@@H](O[C@H]7[C@H](O)[C@@H](O)[C@@H](O[C@H]8[C@H](O)[C@@H](O)[C@@H](O[C@H]1[C@H](O)[C@H]2O)O[C@@H]8CO)O[C@@H]7CO)O[C@@H]6CO)O[C@@H]5CO)O[C@@H]4CO)O[C@@H]3CO` [β-cyclodextrin], the “scutellarin concentrations measured compared with scutellarin standard group (FIG. 2)” value on human MRP2 (higher than standard means MRP2 inhibition) is reported as “lower quantities of scutellarin than that of the standard group”. In the data set on Caco-2 monolayers [1] (Caco-2), the PappAB is recorded as 4.04 ± 0.33 10^−6 cm · s^−1 and the PappBA is on record as 9.33 ± 0.36 10^−6 cm · s^−1.

For the compound `O=C(O)[C@H]1O[C@@H](Oc2cc3oc(-c4ccc(O)cc4)cc(=O)c3c(O)c2O)[C@H](O)[C@@H](O)[C@@H]1O` [Scutellarin, 4,5,6-trihydroxyflavone-7-glucuronide], the “identification as MRP2 substrate with MRP2 inhibitor MK571” value in the data set on Caco-2 monolayers [2] was “identified as the substrate for MRP2”.

With Pluronic ® F127, in the data set with Caco-2 monolayers [1] (Caco-2), the Efflux reduction sequence result was “Cremophor® RH>Pluronic® F68>Labrasol®>Pluronic® F127”, the PappAB is listed as 1.84 ± 0.09 10^−6 cm · s^−1 and the PappBA was 5.31 ± 0.49 10^−6 cm · s^−1.
